Measured values: patent publication US20260042731A1, “(2,4-DICHLOROPHENOXY)ACETIC ACID ANALOGS” (CORTEVA AGRISCIENCE LLC, priority 2022, published 2026)
Where two headings read alike, the source gives them in different places.

Assays:
[1] = test system: Common Lambsquarters (CHEAL); assay: Greenhouse post-emergence mixture trials, percent visual control; format: in vivo; settings: CHEAL, 21 DAA; for pest or weed control at 560 g/ha / pest or weed control at 1120 g/ha: Chenopodium album, post-emergence, 504 h, no mixing partner; for pest or weed control at 1120 g/ha: read-out: % Control
[2] = Volatility of compounds measured by thermogravimetric analysis (TGA); format: physicochemical
[3] = test system: Amaranthus rudis (AMATA), tall water hemp; assay: Postemergence herbicide evaluation, growth of Amaranthus rudis (AMATA); format: in vivo; settings: Amaranthus tuberculatus, post-emergence, percent reduction in plant size relative to untreated control, read-out: Ave. AMATA; for pest or weed control at 280 g/ha: 280 g ae/ha; for pest or weed control at 560 g/ha: 560 g ae/ha
[4] = test system: Chenopodium album (CHEAL), common lambsquarters; assay: Postemergence herbicide evaluation, growth of Chenopodium album (CHEAL); format: in vivo; settings: Chenopodium album, post-emergence, percent reduction in plant size relative to untreated control, read-out: Ave. CHEAL; for pest or weed control at 280 g/ha: 280 g ae/ha; for pest or weed control at 560 g/ha: 560 g ae/ha
[5] = test system: Abutilon theophrasti (ABUTH), velvetleaf; assay: Postemergence herbicide evaluation, growth of Abutilon theophrasti (ABUTH); format: in vivo; settings: Abutilon theophrasti, post-emergence, percent reduction in plant size relative to untreated control, read-out: AVE. ABUTH; for pest or weed control at 280 g/ha: 280 g ae/ha; for pest or weed control at 560 g/ha: 560 g ae/ha
[6] = test system: Ambrosia artemisiifolia (AMBEL), common ragweed; assay: Postemergence herbicide evaluation, growth of Ambrosia artemisiifolia (AMBEL); format: in vivo; settings: Ambrosia artemisiifolia, post-emergence, percent reduction in plant size relative to untreated control, read-out: AVE. AMBEL; for pest or weed control at 280 g/ha: 280 g ae/ha; for pest or weed control at 560 g/ha: 560 g ae/ha
[7] = test system: Velvetleaf (ABUTH); assay: Greenhouse post-emergence mixture trials, percent visual control; format: in vivo; settings: ABUTH, 21 DAA; for pest or weed control at 560 g/ha / pest or weed control at 1120 g/ha: Abutilon theophrasti, post-emergence, 504 h, no mixing partner; for pest or weed control at 1120 g/ha: read-out: % Control
[8] = test system: glyphosate resistant Conyza canadensis (L.) (ERICA), horseweed; assay: Postemergence herbicide evaluation, growth of Conyza canadensis (ERICA); format: in vivo; settings: Erigeron canadensis, post-emergence, percent reduction in plant size relative to untreated control, read-out: Ave. ERICA; for pest or weed control at 280 g/ha: 280 g ae/ha; for pest or weed control at 560 g/ha: 560 g ae/ha
[9] = test system: weeds (ABUTH, AMATA, AMBEL, CHEAL, ERICA); assay: Postemergence herbicide evaluation, overall average % weed control across ABUTH, AMATA, AMBEL, CHEAL, ERICA; format: in vivo; settings: post-emergence, average over the five weeds, read-out: Overall Ave % Weed Control; for pest or weed control at 280 g/ha: 280 g ae/ha; for pest or weed control at 560 g/ha: 560 g ae/ha
[10] = test system: Corn (ZEAMX); assay: Greenhouse post-emergence mixture trials, percent visual control; format: in vivo; settings: ZEAMX, 21 DAA
[11] = Trial Bridge 2, compound 560 g ae/ha + Saflufenacil 25 g ai or ae/ha
[12] = Trial Bridge 2, compound 560 g ae/ha + Saflufenacil 75 g ai or ae/ha
[13] = Trial Bridge 2, compound 560 g ae/ha + Trifludimoxazin 12.5 g ai or ae/ha
[14] = Trial Bridge 2, compound 560 g ae/ha + Trifludimoxazin 50 g ai or ae/ha
[15] = Trial Bridge 2, compound 1120 g ae/ha + Saflufenacil 25 g ai or ae/ha
[16] = Trial Bridge 2, compound 1120 g ae/ha + Saflufenacil 75 g ai or ae/ha
[17] = Trial Bridge 2, compound 1120 g ae/ha + Trifludimoxazin 50 g ai or ae/ha
[18] = Trial Bridge 2, compound 560 g ae/ha
[19] = Trial Bridge 2, compound 1120 g ae/ha
[20] = Trial Bridge 1, compound 560 g ae/ha + Glufosinate 600 g ai or ae/ha

## O=C(COc1ccc(Cl)cc1Cl)NNC(=O)c1ccccc1 [Compound D10]
[1]; [11]
  % Control: 100%
[1]; [12]
  % Control: 100%
[1]; [13]
  % Control: 100%
[1]; [14]
  % Control: 100%
[1]; [15]
  % Control: 100%
[1]; [16]
  % Control: 100%
[1]; Trial Bridge 2, compound 1120 g ae/ha + Trifludimoxazin 12.5 g ai or ae/ha
  % Control: 100%
[1]; [17]
  % Control: 100%
[1]; Trial Bridge 3, compound 560 g ae/ha + Sulfentrazone 130 g ai/ha
  % Control: 100%
[1]; Trial Bridge 3, compound 560 g ae/ha + Sulfentrazone 347 g ai/ha
  % Control: 100%
[1]; Trial Bridge 3, compound 1120 g ae/ha + Sulfentrazone 130 g ai/ha
  % Control: 100%
[1]; Trial Bridge 3, compound 1120 g ae/ha + Sulfentrazone 347 g ai/ha
  % Control: 100%
[1]; [18]
  pest or weed control at 560 g/ha: 95%
[1]; [19]
  pest or weed control at 1120 g/ha: 95%
[1]; Trial Bridge 3, compound 560 g ae/ha
  pest or weed control at 560 g/ha: 95%
[1]; Trial Bridge 3, compound 1120 g ae/ha
  pest or weed control at 1120 g/ha: 100%
[1]; Trial Bridge 1, compound 560 g ae/ha
  pest or weed control at 560 g/ha: 95%
[1]; Trial Bridge 1, compound 1120 g ae/ha
  pest or weed control at 1120 g/ha: 95%
[1]; [20]
  % Control: 100%
[1]; Trial Bridge 1, compound 560 g ae/ha + Mesotrione 150 g ai or ae/ha
  % Control: 100%
[1]; Trial Bridge 1, compound 1120 g ae/ha + Arylex 5 g ai or ae/ha
  % Control: 95%
[1]; Trial Bridge 1, compound 1120 g ae/ha + Mesotrione 150 g ai or ae/ha
  % Control: 100%
[2]
  TGA Data (rate of weight loss, volatility): 0.3 µg/min
[3]; 168 h, 7 DAA
  pest or weed control at 280 g/ha: 68%
  pest or weed control at 560 g/ha: 80%
[3]; 336 h, 14 DAA
  pest or weed control at 280 g/ha: 94%
  pest or weed control at 560 g/ha: 96%
[3]; 504 h, 21 DAA
  pest or weed control at 280 g/ha: 85%
  pest or weed control at 560 g/ha: 85%
[4]; 168 h, 7 DAA
  pest or weed control at 280 g/ha: 63%
  pest or weed control at 560 g/ha: 65%
[4]; 336 h, 14 DAA
  pest or weed control at 280 g/ha: 68%
  pest or weed control at 560 g/ha: 83%
[4]; 504 h, 21 DAA
  pest or weed control at 280 g/ha: 73%
  pest or weed control at 560 g/ha: 85%
[5]; 168 h, 7 DAA
  pest or weed control at 280 g/ha: 88%
  pest or weed control at 560 g/ha: 83%
[5]; 336 h, 14 DAA
  pest or weed control at 280 g/ha: 85%
  pest or weed control at 560 g/ha: 96%
[5]; 504 h, 21 DAA
  pest or weed control at 280 g/ha: 91%
  pest or weed control at 560 g/ha: 100%
[6]; 168 h, 7 DAA
  pest or weed control at 280 g/ha: 73%
  pest or weed control at 560 g/ha: 83%
[6]; 336 h, 14 DAA
  pest or weed control at 280 g/ha: 91%
  pest or weed control at 560 g/ha: 97%
[6]; 504 h, 21 DAA
  pest or weed control at 280 g/ha: 93%
  pest or weed control at 560 g/ha: 100%
[7]; compound 1120 g ae/ha + Sulfentrazone 130 g ai/ha, Trial Bridge 3
  % Control: 100%
[7]; compound 1120 g ae/ha + Sulfentrazone 347 g ai/ha, Trial Bridge 3
  % Control: 100%
[7]; compound 560 g ae/ha, Trial Bridge 3
  pest or weed control at 560 g/ha: 85%
[7]; compound 1120 g ae/ha, Trial Bridge 3
  pest or weed control at 1120 g/ha: 95%
[7]; Trial Bridge 1 Trt 2, D10 560 g ae/ha
  pest or weed control at 560 g/ha: 99%
[7]; Trial Bridge 1 Trt 3, D10 1120 g ae/ha
  pest or weed control at 1120 g/ha: 100%
[7]; [18]
  pest or weed control at 560 g/ha: 100%
[7]; [19]
  pest or weed control at 1120 g/ha: 100%
[7]; [20]
  % Control: 100%
[7]; Trial Bridge 1 Trt 5, D10 560 g ae/ha + diclosulam 35 g ai or ae/ha
  % Control: 100%
[7]; Trial Bridge 1 Trt 6, D10 1120 g ae/ha + diclosulam 35 g ai or ae/ha
  % Control: 100%
[7]; Trial Bridge 1 Trt 8, D10 560 g ae/ha + Arylex 5 g ai or ae/ha
  % Control: 100%
[7]; Trial Bridge 1 Trt 9, D10 1120 g ae/ha + Arylex 5 g ai or ae/ha
  % Control: 100%
[7]; Trial Bridge 1 Trt 11, D10 560 g ae/ha + Mesotrione 150 g ai or ae/ha
  % Control: 100%
[7]; Trial Bridge 1 Trt 12, D10 1120 g ae/ha + Mesotrione 150 g ai or ae/ha
  % Control: 100%
[7]; Trial Bridge 1 Trt 14, D10 560 g ae/ha + Glyphosate 1120 g ai or ae/ha
  % Control: 100%
[7]; Trial Bridge 1 Trt 15, D10 1120 g ae/ha + Glyphosate 1120 g ai or ae/ha
  % Control: 100%
[7]; [11]
  % Control: 100%
[7]; [12]
  % Control: 100%
[7]; [13]
  % Control: 100%
[7]; [14]
  % Control: 100%
[7]; [15]
  % Control: 100%
[7]; [16]
  % Control: 100%
[7]; [17]
  % Control: 100%
[8]; 168 h, 7 DAA
  pest or weed control at 280 g/ha: 63%
  pest or weed control at 560 g/ha: 65%
[8]; 336 h, 14 DAA
  pest or weed control at 280 g/ha: 83%
  pest or weed control at 560 g/ha: 88%
[8]; 504 h, 21 DAA
  pest or weed control at 280 g/ha: 93%
  pest or weed control at 560 g/ha: 99%
[9]; 168 h, 7 DAA
  pest or weed control at 280 g/ha: 71%
  pest or weed control at 560 g/ha: 75%
[9]; 336 h, 14 DAA
  pest or weed control at 280 g/ha: 84%
  pest or weed control at 560 g/ha: 92%
[9]; 504 h, 21 DAA
  pest or weed control at 280 g/ha: 87%
  pest or weed control at 560 g/ha: 94%
[10]; Trial Bridge 1, compound 560 g ae/ha + Glyphosate 1120 g ai or ae/ha
  % Control: 75%
[10]; Trial Bridge 1, compound 560 g ae/ha + Glyphosate 1120 g ai or ae/ha, single replicate
  % Control: 70%
[10]; Trial Bridge 1, compound 1120 g ae/ha, no mixing partner, single replicate
  % Control: 10%
[10]; Zea mays, post-emergence, 504 h, Trial Bridge 1, compound 1120 g ae/ha, no mixing partner, single replicate
  plant injury at 1120 g/ha: 10%
[10]; Zea mays, post-emergence, 504 h, compound 560 g ae/ha, no mixing partner, Trial Bridge 3
  plant injury at 560 g/ha: 5%
